Our source for the IC50 values is patent US20260015350A1, “AZAQUINAZOLINE PAN-KRAS INHIBITORS” (Mirati Therapeutics, Inc., priority 2022, published 2026).

The structures appear in SMILES notation.

In one assay the target is T1, KRas^WT (Homo sapiens, UniProt P01116).
T1 construct: Biotinylated KRas (corresponding to amino acids 1-169, produced at Accelegan Inc.); biotin (biotinylated); purchased Accelegan Inc
The experiment in a line: KRas binding assay (TR-FRET tracer displacement), KRas WT. Particulars: TR-FRET tracer displacement, KRas WT. (In TR-FRET formats the signal depends on donor and acceptor labels being close together.)

For another assay, the target named is T2, KRas^G12C (Homo sapiens, UniProt P01116, G12C).
T2 construct: Biotinylated KRas (corresponding to amino acids 1-169, produced at Accelegan Inc.); biotin (biotinylated); purchased Accelegan Inc
T2 sequence (P01116 1-169 isoform P01116-2 G12C): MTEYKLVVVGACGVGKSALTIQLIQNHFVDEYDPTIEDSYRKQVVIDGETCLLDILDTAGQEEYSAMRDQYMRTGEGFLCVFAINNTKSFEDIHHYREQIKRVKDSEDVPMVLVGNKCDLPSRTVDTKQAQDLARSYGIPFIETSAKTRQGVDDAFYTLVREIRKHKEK
The experiment in a line: KRas binding assay (TR-FRET tracer displacement), KRas G12C. Particulars: TR-FRET tracer displacement, KRas G12C.

The target of another assay is T3, KRas^G12D (Homo sapiens, UniProt P01116, G12D).
T3 construct: Biotinylated KRas (corresponding to amino acids 1-169, produced at Accelegan Inc.); biotin (biotinylated); purchased Accelegan Inc
T3 sequence (P01116 1-169 isoform P01116-2 G12D): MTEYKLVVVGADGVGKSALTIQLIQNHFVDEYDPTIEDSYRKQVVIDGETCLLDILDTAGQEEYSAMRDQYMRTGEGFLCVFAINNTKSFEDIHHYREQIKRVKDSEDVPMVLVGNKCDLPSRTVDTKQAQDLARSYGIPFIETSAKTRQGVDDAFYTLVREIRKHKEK
Description: KRas binding assay (TR-FRET tracer displacement), KRas G12D.

For another assay, the target named is T4, KRas^G12S (Homo sapiens, UniProt P01116, G12S).
T4 construct: Biotinylated KRas (corresponding to amino acids 1-169, produced at Accelegan Inc.); biotin (biotinylated); purchased Accelegan Inc
T4 sequence (P01116 1-169 isoform P01116-2 G12S): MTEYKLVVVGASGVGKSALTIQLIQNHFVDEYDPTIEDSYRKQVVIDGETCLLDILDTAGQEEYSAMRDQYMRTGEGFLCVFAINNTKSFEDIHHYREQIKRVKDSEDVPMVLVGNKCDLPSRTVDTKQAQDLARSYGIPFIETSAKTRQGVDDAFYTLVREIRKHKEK
The experiment in a line: KRas binding assay (TR-FRET tracer displacement), KRas G12S. Particulars: TR-FRET tracer displacement, KRas G12S.

Another assay concerns the target T5, KRas^G12V (Homo sapiens, UniProt P01116, G12V).
T5 construct: Biotinylated KRas (corresponding to amino acids 1-169, produced at Accelegan Inc.); biotin (biotinylated); purchased Accelegan Inc
The experiment in a line: KRas binding assay (TR-FRET tracer displacement), KRas G12V.

Assay [1] has as its system KRas-mediated phosphorylation of ERK in MKN1 cells. The experiment in a line: Inhibition of KRas-mediated phosphorylation of ERK (Cisbio HTRF pERK), MKN1 cells. It counts as cell-based. The note with it: Homo sapiens, MKN-1. In a few lines:
(§1)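 Day 1 seeding: 6,000 cells per well, RPMI/10% FBS, left overnight at 37° C. with 5% CO2. Plates then stood covered for 4 h at room temperature prior to HTRF detection of pERK.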

Assay [2] has as its system KRas-mediated phosphorylation of ERK in PSN1 cells. The experiment in a line: Inhibition of KRas-mediated phosphorylation of ERK (Cisbio HTRF pERK), PSN1 cells. Type of assay: cell-based. The note with it: Homo sapiens. In a few lines: as §1
The subject of assay [3] is KRas-mediated phosphorylation of ERK in AsPC-1 cells. Description: Inhibition of KRas-mediated phosphorylation of ERK (Cisbio HTRF pERK), AsPC-1 cells. The note with it: Homo sapiens, ASPC1, AsPC-1 cells; HTRF pERK. It counts as cell-based. Summed up: (§2)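 Min control wells contained 0.2 uM Trametinib, while test compounds ran as 10 doses (3-fold, top 10 uM; 0.8% DMSO final) on cells for 3 hrs. After 40 mins lysis at 4° C, lysates were probed with HTRF antibodies for 2 hrs at room temperature.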

The test system of assay [4] is KRas-mediated phosphorylation of ERK in H727 cells. Description: Inhibition of KRas-mediated phosphorylation of ERK (Cisbio HTRF pERK), H727 cells. It counts as cell-based. The note with it: Homo sapiens, NCI-H727, H727 cells; HTRF pERK. In a few lines:
as §2

For assay [5], the system named is KRas-mediated phosphorylation of ERK in A549 cells. The experiment in a line: Inhibition of KRas-mediated phosphorylation of ERK (Cisbio HTRF pERK), A549 cells. It counts as cell-based. Particulars: Homo sapiens, HTRF pERK. Summed up:
(§3)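 Using 6,000 cells per well, compounds are applied for 3 hrs and cells then lysed at 4° C with shaking for 40 mins. Phospho-ERK is measured by HTRF after 2 hrs of lysate incubation with the d2/Cryptate antibody mixture.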

The test system of assay [6] is KRas-mediated phosphorylation of ERK in H460 cells. The experiment in a line: Inhibition of KRas-mediated phosphorylation of ERK (Cisbio HTRF pERK), H460 cells. It counts as cell-based. The note with it: Homo sapiens, NCI-H460, HTRF pERK. Summed up: as §2
Assay [7] concerns KRas-mediated phosphorylation of ERK in HCT116 cells. The experiment in a line: Inhibition of KRas-mediated phosphorylation of ERK (Cisbio HTRF pERK), HCT116 cells. It counts as cell-based. The note with it: Homo sapiens, HCT-116, HTRF pERK. Summed up: as §3
Assay [8] relates to KRas-mediated phosphorylation of ERK in H358 cells. Description: Inhibition of KRas-mediated phosphorylation of ERK (Cisbio HTRF pERK), H358 cells. It counts as cell-based. Particulars: Homo sapiens, NCI-H358, HTRF pERK. Summed up:
as §2

T1 sequence (P01116 1-169 isoform P01116-2): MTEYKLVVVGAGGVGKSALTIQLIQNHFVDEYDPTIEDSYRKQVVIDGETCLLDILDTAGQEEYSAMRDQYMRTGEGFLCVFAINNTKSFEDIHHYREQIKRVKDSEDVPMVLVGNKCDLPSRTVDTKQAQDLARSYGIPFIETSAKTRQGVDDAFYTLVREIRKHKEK
T5 sequence (P01116 1-169 isoform P01116-2 G12V): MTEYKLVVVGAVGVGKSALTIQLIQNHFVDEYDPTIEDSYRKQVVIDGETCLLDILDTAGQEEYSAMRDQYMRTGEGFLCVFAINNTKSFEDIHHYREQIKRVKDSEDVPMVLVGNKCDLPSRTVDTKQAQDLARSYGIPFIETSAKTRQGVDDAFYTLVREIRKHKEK

A word on the IC50: it is the concentration at which inhibition is half-maximal. In the case of `C[C@@H]1C[C@@H]1c1c(Cl)cc(O)cc1-c1ncc2c(N3CCCC4(CNS(=O)(=O)N4)C3)nc(OC[C@@]34CCCN3C[C@H](F)C4)nc2c1F` (stereo in doubt) [Example 929, 7-(7-(3-chloro-5-hydroxy-2-(cis-2-methylcyclopropyl)phenyl)-8-fluoro-2-(((2R,7aS)-2-fluorotetrahydro-1H-pyrrolizin-7a(5H)-yl)methoxy)pyrido[4,3-d]pyrimidin-4-yl)-2-thia-1,3,7-triazaspiro[4.5]decane 2,2-dioxide], the IC50 on KRas^WT is less than 2 nM; on KRas^G12C, less than 2 nM; on KRas^G12D, 2 nM; at KRas^G12S it was less than 2 nM; on KRas^G12V, less than 2 nM; in assay [1], 17 nM. Further, the IC50 was 397 nM in [2]; 60 nM in assay [3]; 163 nM in assay [4]; 84 nM in assay [5]; 41 nM in assay [6]; 137 nM in assay [7]. The IC50 in assay [8] was found to be 14 nM.
For the molecule `CCc1c(F)ccc2cc(O)cc(-c3ncc4c(N5C[C@@H]6C[C@H](C5)[C@H](O)C6)nc(OCC56CCCN5C/C(=C\F)C6)nc4c3F)c12` (stereo partly drawn) [Example 793, (1R,5R,6R)-3-(7-(8-ethyl-7-fluoro-3-hydroxynaphthalen-1-yl)-8-fluoro-2-(((Z)-2-(fluoromethylene)tetrahydro-1H-pyrrolizin-7a(5H)-yl)methoxy)pyrido[4,3-d]pyrimidin-4-yl)-3-azabicyclo[3.2.1]octan-6-ol], the half-maximal inhibitory concentration (IC50) on KRas^WT is less than 2 nM; on KRas^G12C it was less than 2 nM; on KRas^G12D, less than 2 nM; on KRas^G12S, less than 2 nM; at KRas^G12V, less than 2 nM; in assay [1], 0.3 nM. Also, the IC50 in [2] is 246 nM; in assay [3], 3 nM; in assay [4], 3 nM; in assay [5] it was 1 nM; in [6], 2 nM; in [7], 9 nM. Further, 1 nM corresponded to half-maximal inhibition in assay [8] (IC50).
Take `CCc1c(F)ccc2cc(O)cc(-c3ncc4c(N5CCC[C@]6(C5)NC(=O)NC6=O)nc(OCC56CCCN5C/C(=C\F)C6)nc4c3F)c12` (stereo partly drawn) [Example 794, (5R)-7-(7-(8-ethyl-7-fluoro-3-hydroxynaphthalen-1-yl)-8-fluoro-2-(((Z)-2-(fluoromethylene)tetrahydro-1H-pyrrolizin-7a(5H)-yl)methoxy)pyrido[4,3-d]pyrimidin-4-yl)-1,3,7-triazaspiro[4.5]decane-2,4-dione]: the IC50 at KRas^WT is less than 2 nM; at KRas^G12C it was less than 2 nM; at KRas^G12D it was less than 2 nM; at KRas^G12S, less than 2 nM; at KRas^G12V it was less than 2 nM; in assay [1], 1 nM. For the same molecule, the IC50 in assay [2] is 37 nM; in [3] it was 32 nM; in assay [4], 27 nM; in assay [5], 12 nM; in assay [6], 6 nM; in assay [7], 26 nM. Further, the midpoint of inhibition in assay [8], the IC50, lay at 5 nM.
`CCc1c(F)ccc2cc(O)cc(-c3ncc4c(N5CCCn6nc(C(=O)N(C)C)cc6C5)nc(OCC56CCCN5C/C(=C\F)C6)nc4c3F)c12` (centres unmarked) [Example 795, (Z)-5-(7-(8-ethyl-7-fluoro-3-hydroxynaphthalen-1-yl)-8-fluoro-2-((2-(fluoromethylene)tetrahydro-1H-pyrrolizin-7a(5H)-yl)methoxy)pyrido[4,3-d]pyrimidin-4-yl)-N,N-dimethyl-5,6,7,8-tetrahydro-4H-pyrazolo[1,5-a][1,4]diazepine-2-carboxamide]: the half-inhibitory concentration (IC50) was less than 2 nM at KRas^WT; less than 2 nM at KRas^G12C; less than 2 nM on KRas^G12D; less than 2 nM at KRas^G12S; less than 2 nM at KRas^G12V; 4 nM in assay [1]. For the same molecule, the IC50 in assay [2] stood at 4790 nM; in assay [3] it was 2 nM; in assay [4], 11 nM; in assay [5] it was 41 nM; in assay [6], 28 nM; in assay [7] it was 130 nM. In assay [8], this molecule had an IC50 of 4 nM.
For the molecule `CCc1c(F)ccc2cc(O)cc(-c3ncc4c(N5C[C@@H]6C[C@H](C5)[C@H](O)C6)nc(OCC56CCCN5CC(=C(F)F)C6)nc4c3F)c12` (stereo partly drawn) [Example 798, (1R,5R,6R)-3-(2-((2-(difluoromethylene)tetrahydro-1H-pyrrolizin-7a(5H)-yl)methoxy)-7-(8-ethyl-7-fluoro-3-hydroxynaphthalen-1-yl)-8-fluoropyrido[4,3-d]pyrimidin-4-yl)-3-azabicyclo[3.2.1]octan-6-ol], the IC50 at KRas^WT is less than 2 nM; on KRas^G12C, less than 2 nM; at KRas^G12D it was less than 2 nM; at KRas^G12S, less than 2 nM; at KRas^G12V, less than 2 nM; in assay [1], 0.3 nM. The IC50 in assay [2] was determined as 946 nM; in assay [3], 17 nM; in assay [4], 19 nM; in assay [5], 3 nM; in assay [6], 4 nM; in assay [7] it was 25 nM. The same molecule had a concentration for half-maximal inhibition (IC50) in assay [8] of 3 nM.
As for `C=C1CN2CC(=C)CC2(COc2nc(N3CCC[C@@](C)(O)C3)c3cnc(-c4cc(O)cc5ccc(F)c(CC)c45)c(F)c3n2)C1` [Example 799, (R)-1-(2-((2,6-dimethylenetetrahydro-1H-pyrrolizin-7a(5H)-yl)methoxy)-7-(8-ethyl-7-fluoro-3-hydroxynaphthalen-1-yl)-8-fluoropyrido[4,3-d]pyrimidin-4-yl)-3-methylpiperidin-3-ol], the half-inhibitory concentration (IC50) at KRas^WT was less than 2 nM; at KRas^G12C, less than 2 nM; on KRas^G12D, less than 2 nM; at KRas^G12S, less than 2 nM; on KRas^G12V, less than 2 nM; in assay [1] it was 0.9 nM. For the same molecule, the 50% inhibitory concentration (IC50) came to 988 nM in [2]; 7 nM in [3]; 20 nM in assay [4]; 9 nM in assay [5]; 8 nM in assay [6]; 30 nM in [7]. This molecule also gave an IC50 in assay [8] of 4 nM.
For `C=C1CN2CCCC2(COc2nc(N3C[C@@H]4C[C@H](C3)[C@H](O)C4)c3cnc(-c4cc(O)cc5ccc(F)c(CC)c45)c(F)c3n2)C1` (stereo partly drawn) [Example 800, (1R,5R,6R)-3-(7-(8-ethyl-7-fluoro-3-hydroxynaphthalen-1-yl)-8-fluoro-2-((2-methylenetetrahydro-1H-pyrrolizin-7a(5H)-yl)methoxy)pyrido[4,3-d]pyrimidin-4-yl)-3-azabicyclo[3.2.1]octan-6-ol], the half-inhibitory concentration (IC50) at KRas^WT was less than 2 nM; at KRas^G12C, less than 2 nM; at KRas^G12D, less than 2 nM; at KRas^G12S, less than 2 nM; on KRas^G12V, less than 2 nM; in [1], 0.3 nM. For the same molecule, the half-inhibitory concentration (IC50) in assay [2] was 587 nM; in assay [3] it was 6 nM; in [4] it was 3 nM; in assay [5] it was 3 nM; in [6] it was 3 nM; in [7] it was 13 nM. For the same molecule, half-maximal inhibition in [8] (IC50) required 1 nM.
`C#Cc1c(F)ccc2cc(O)cc(-c3ncc4c(N5CCC[C@@](C)(O)C5)nc(OC[C@]56CCCN5C/C(=C\F)C6)nc4c3F)c12` [Example 801, (3R)-1-(7-(8-ethynyl-7-fluoro-3-hydroxynaphthalen-1-yl)-8-fluoro-2-(((Z)-2-(fluoromethylene)tetrahydro-1H-pyrrolizin-7a(5H)-yl)methoxy)pyrido[4,3-d]pyrimidin-4-yl)-3-methylpiperidin-3-ol]: the 50% inhibitory concentration (IC50) was less than 2 nM on KRas^WT; less than 2 nM at KRas^G12C; less than 2 nM on KRas^G12D; less than 2 nM on KRas^G12S; less than 2 nM on KRas^G12V; 0.1 nM in [1]. Also, the IC50 stood at 117 nM in assay [2]; 3 nM in [3]; 12 nM in [4]; 7 nM in assay [5]; 4 nM in assay [6]; 15 nM in assay [7]. Further, the IC50 in assay [8] stood at 1 nM.
